Results from patent US20180237441A1, “Chemical Compounds” (GlaxoSmithKline Intellectual Property (No.2) Limited, priority 2015, published 2018).

The compounds below were run against T1, PERK (Homo sapiens, UniProt Q9NZJ5) (assay: PERK enzyme assay (HTRF)). Settings: 500 μM ATP; at least one experimental run; read-out: PERK Enzyme (500 μM ATP) IC50.
T1 sequence (Q9NZJ5 30-1116): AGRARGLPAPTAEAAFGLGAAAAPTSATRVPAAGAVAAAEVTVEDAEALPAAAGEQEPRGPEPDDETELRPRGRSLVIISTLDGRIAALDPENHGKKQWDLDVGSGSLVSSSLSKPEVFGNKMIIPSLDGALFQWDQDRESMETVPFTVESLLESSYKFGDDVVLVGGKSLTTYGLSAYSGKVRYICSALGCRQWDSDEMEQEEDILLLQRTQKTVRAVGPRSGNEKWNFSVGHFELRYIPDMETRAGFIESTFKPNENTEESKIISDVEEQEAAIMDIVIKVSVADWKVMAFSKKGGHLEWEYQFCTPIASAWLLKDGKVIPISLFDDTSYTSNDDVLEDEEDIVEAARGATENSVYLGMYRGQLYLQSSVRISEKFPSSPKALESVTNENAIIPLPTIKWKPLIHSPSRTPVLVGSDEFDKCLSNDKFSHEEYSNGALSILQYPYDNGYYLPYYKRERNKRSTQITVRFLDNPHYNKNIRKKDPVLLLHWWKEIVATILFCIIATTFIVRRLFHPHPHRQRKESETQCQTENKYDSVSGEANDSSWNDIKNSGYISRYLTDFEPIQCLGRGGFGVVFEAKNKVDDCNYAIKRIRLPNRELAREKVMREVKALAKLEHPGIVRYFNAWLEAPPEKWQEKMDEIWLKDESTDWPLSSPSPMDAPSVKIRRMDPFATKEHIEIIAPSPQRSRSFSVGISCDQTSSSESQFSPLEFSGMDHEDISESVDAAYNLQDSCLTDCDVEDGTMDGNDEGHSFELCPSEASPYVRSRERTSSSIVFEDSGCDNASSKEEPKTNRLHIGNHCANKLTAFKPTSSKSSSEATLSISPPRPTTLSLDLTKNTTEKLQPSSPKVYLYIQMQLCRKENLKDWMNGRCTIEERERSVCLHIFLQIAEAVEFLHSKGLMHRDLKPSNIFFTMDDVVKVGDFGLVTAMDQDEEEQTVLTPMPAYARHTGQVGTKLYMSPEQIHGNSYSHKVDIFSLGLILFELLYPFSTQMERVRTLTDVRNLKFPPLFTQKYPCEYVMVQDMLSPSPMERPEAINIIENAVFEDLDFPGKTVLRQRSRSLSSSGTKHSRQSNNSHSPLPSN
Format: biochemical
In short: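 HTRF read-out after 2 h of EDTA-quenched reactions, detecting phospho-eIF2α with Eu/APC reagents, gave IC50 values. Reaction: 0.75 nM GST-PERK, 30–60 min compound pre-incubation (max 1% DMSO), then 60 min with 40 nM biotin-eIF2α and 500 μM ATP, HEPES pH 7.5 buffer.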

IC50 | SMILES
4 nM | CN1C(=O)N(c2ccc(-c3cn(C4CC4)c4ncnc(N)c34)c(F)c2)CC1c1ccccc1 (single isomer, unassigned) [Example 165, 1-(4-(4-amino-7-cyclopropyl-7H-pyrrolo[2,3-d]pyrimidin-5-yl)-3-fluorophenyl)-3-methyl-4-phenylimidazolidin-2-one]
30.1 nM | CCN1C(=O)N(c2ccc(-c3cn(C)c4ncnc(N)c34)c(F)c2)CC1c1cc(F)cc(F)c1 (single isomer, unassigned) [Example 172, 1-(4-(4-amino-7-methyl-7H-pyrrolo[2,3-d]pyrimidin-5-yl)-3-fluorophenyl)-4-(3,5-difluorophenyl)-3-ethylimidazolidin-2-one]
903 nM | CC(C)CN1C(=O)N(c2ccc(-c3cn(C)c4ncnc(N)c34)c(F)c2)CC1c1cc(F)ccc1F (centres unmarked) [Example 14, 1-(4-(4-amino-7-methyl-7H-pyrrolo[2,3-d]pyrimidin-5-yl)-3-fluorophenyl)-4-(2,5-difluorophenyl)-3-isobutylimidazolidin-2-one]

Same assay, conditions: PERK Enzyme (500 μM ATP) IC50; at least one experimental run; read-out: PERK Activity

IC50 | SMILES
< 100 nM | CN1C(=O)N(c2ccc(-c3cn(C4CC4)c4ncnc(N)c34)c(F)c2)CC1c1ccc(F)cc1F (single isomer, unassigned) [Example 155, 1-(4-(4-amino-7-cyclopropyl-7H-pyrrolo[2,3-d]pyrimidin-5-yl)-3-fluorophenyl)-4-(2,4-difluorophenyl)-3-methylimidazolidin-2-one]
< 100 nM | CN1C(=O)N(c2ccc(-c3cn(C)c4ncnc(N)c34)c(F)c2)CC1c1cc(F)c(F)cc1F (single isomer, unassigned) [Example 158, 1-(4-(4-amino-7-methyl-7H-pyrrolo[2,3-d]pyrimidin-5-yl)-3-fluorophenyl)-3-methyl-4-(2,4,5-trifluorophenyl)imidazolidin-2-one]
100 to 1000 nM | CN1C(=O)N(c2ccc(-c3cn(C)c4ncnc(N)c34)c(F)c2)CC1c1cc(F)c(F)cc1F (single isomer, unassigned) [Example 159, 1-(4-(4-amino-7-methyl-7H-pyrrolo[2,3-d]pyrimidin-5-yl)-3-fluorophenyl)-3-methyl-4-(2,4,5-trifluorophenyl)imidazolidin-2-one]
< 100 nM | CN1C(=O)N(c2ccc(-c3cn(C4CC4)c4ncnc(N)c34)c(F)c2)CC1c1cc(F)c(F)cc1F (single isomer, unassigned) [Example 160, 1-(4-(4-amino-7-cyclopropyl-7H-pyrrolo[2,3-d]pyrimidin-5-yl)-3-fluorophenyl)-3-methyl-4-(2,4,5-trifluorophenyl)imidazolidin-2-one]
< 100 nM | CN1C(=O)N(c2ccc(-c3cn(C4CC4)c4ncnc(N)c34)c(F)c2)CC1c1cc(F)c(F)cc1F (single isomer, unassigned) [Example 161, 1-(4-(4-amino-7-cyclopropyl-7H-pyrrolo[2,3-d]pyrimidin-5-yl)-3-fluorophenyl)-3-methyl-4-(2,4,5-trifluorophenyl)imidazolidin-2-one]
< 100 nM | CN1C(=O)N(c2ccc(-c3cn(C4CC4)c4ncnc(N)c34)c(F)c2)CC1c1ccc(F)cc1 (single isomer, unassigned) [Example 163, 1-(4-(4-amino-7-cyclopropyl-7H-pyrrolo[2,3-d]pyrimidin-5-yl)-3-fluorophenyl)-4-(4-fluorophenyl)-3-methylimidazolidin-2-one]
100 to 1000 nM | CN1C(=O)N(c2ccc(-c3cn(C4CC4)c4ncnc(N)c34)c(F)c2)CC1c1ccc(F)cc1 (single isomer, unassigned) [Example 164, 1-(4-(4-amino-7-cyclopropyl-7H-pyrrolo[2,3-d]pyrimidin-5-yl)-3-fluorophenyl)-4-(4-fluorophenyl)-3-methylimidazolidin-2-one]
< 100 nM | CN1C(=O)N(c2ccc(-c3cn(C4CC4)c4ncnc(N)c34)c(F)c2)CC1c1ccccc1 (single isomer, unassigned) [Example 165, 1-(4-(4-amino-7-cyclopropyl-7H-pyrrolo[2,3-d]pyrimidin-5-yl)-3-fluorophenyl)-3-methyl-4-phenylimidazolidin-2-one]
< 100 nM | CN1C(=O)N(c2ccc(-c3cn(C4CC4)c4ncnc(N)c34)c(F)c2)CC1c1ccccc1 (single isomer, unassigned) [Example 166, 1-(4-(4-amino-7-cyclopropyl-7H-pyrrolo[2,3-d]pyrimidin-5-yl)-3-fluorophenyl)-3-methyl-4-phenylimidazolidin-2-one]
< 100 nM | CN1C(=O)N(c2ccc(-c3cn(C4CC4)c4ncnc(N)c34)c(F)c2)CC1c1ccc(Cl)cc1 (single isomer, unassigned) [Example 168, 1-(4-(4-amino-7-cyclopropyl-7H-pyrrolo[2,3-d]pyrimidin-5-yl)-3-fluorophenyl)-4-(4-chlorophenyl)-3-methylimidazolidin-2-one]
< 100 nM | CN1C(=O)N(c2ccc(-c3cn(C)c4ncnc(N)c34)c(F)c2)CC1c1ccc2c(c1)CCO2 (single isomer, unassigned) [Example 169, 1-(4-(4-amino-7-methyl-7H-pyrrolo[2,3-d]pyrimidin-5-yl)-3-fluorophenyl)-4-(2,3-dihydrobenzofuran-5-yl)-3-methylimidazolidin-2-one]
< 100 nM | CCN1C(=O)N(c2ccc(-c3cn(C)c4ncnc(N)c34)c(F)c2)CC1c1cc(F)cc(F)c1 (single isomer, unassigned) [Example 171, 1-(4-(4-amino-7-methyl-7H-pyrrolo[2,3-d]pyrimidin-5-yl)-3-fluorophenyl)-4-(3,5-difluorophenyl)-3-ethylimidazolidin-2-one]
< 100 nM | CCN1C(=O)N(c2ccc(-c3cn(C)c4ncnc(N)c34)c(F)c2)CC1c1cc(F)cc(F)c1 (single isomer, unassigned) [Example 172, 1-(4-(4-amino-7-methyl-7H-pyrrolo[2,3-d]pyrimidin-5-yl)-3-fluorophenyl)-4-(3,5-difluorophenyl)-3-ethylimidazolidin-2-one]
< 100 nM | CCN1C(=O)N(c2ccc(-c3cn(C4CC4)c4ncnc(N)c34)c(F)c2)CC1c1cc(F)cc(F)c1 (single isomer, unassigned) [Example 173, 1-(4-(4-amino-7-cyclopropyl-7H-pyrrolo[2,3-d]pyrimidin-5-yl)-3-fluorophenyl)-4-(3,5-difluorophenyl)-3-ethylimidazolidin-2-one]
< 100 nM | CCN1C(=O)N(c2ccc(-c3cn(C4CC4)c4ncnc(N)c34)c(F)c2)CC1c1cc(F)cc(F)c1 (single isomer, unassigned) [Example 174, 1-(4-(4-amino-7-cyclopropyl-7H-pyrrolo[2,3-d]pyrimidin-5-yl)-3-fluorophenyl)-4-(3,5-difluorophenyl)-3-ethylimidazolidin-2-one]
100 to 1000 nM | Cn1cc(-c2ccc(N3CC(c4cc(F)cc(F)c4)CC3=O)cc2F)c2c(N)ncnc21 (centres unmarked) [Example 4, 1-(4-(4-Amino-7-methyl-7H-pyrrolo[2,3-d]pyrimidin-5-yl)-3-fluorophenyl)-4-(3,5-difluorophenyl)pyrrolidin-2-one]
100 to 1000 nM | Cc1cc(N2CC(c3cc(F)cc(F)c3)CC2=O)ccc1-c1cn(C)c2ncnc(N)c12 (centres unmarked) [Example 5, 1-(4-(4-Amino-7-methyl-7H-pyrrolo[2,3-d]pyrimidin-5-yl)-3-methylphenyl)-4-(3,5-difluorophenyl)pyrrolidin-2-one]
> 1000 nM | Cn1cc(-c2ccc(N3CC(C4CCCCC4)CC3=O)cc2F)c2c(N)ncnc21 (centres unmarked) [Example 6, 1-(4-(4-Amino-7-methyl-7H-pyrrolo[2,3-d]pyrimidin-5-yl)-3-fluorophenyl)-4-cyclohexyl pyrrolidin-2-one]
< 100 nM | CN1C(=O)N(c2ccc(-c3cn(C)c4ncnc(N)c34)c(F)c2)CC1c1ccccn1 (centres unmarked) [Example 7, 1-(4-(4-amino-7-methyl-7H-pyrrolo[2,3-d]pyrimidin-5-yl)-3-fluorophenyl)-3-methyl-4-(pyridin-2-yl)imidazolidin-2-one]
100 to 1000 nM | CC(C)CN1C(=O)N(c2ccc(-c3cn(C)c4ncnc(N)c34)c(F)c2)CC1c1cc(F)ccc1F (centres unmarked) [Example 14, 1-(4-(4-amino-7-methyl-7H-pyrrolo[2,3-d]pyrimidin-5-yl)-3-fluorophenyl)-4-(2,5-difluorophenyl)-3-isobutylimidazolidin-2-one]
